The values below come from article PMC9719519, “Non-classical ferroptosis inhibition by a small molecule targeting PHB2” (Nature Communications, 2022).

Common to all, as to experiment: biochemical
Parameters in all cases: Eurofins recombinant human kinase profiling, remaining kinase activity as % of control, 10 uM ATP
Holding throughout (details): ATP 10 uM; read-out: %Ctrl@10 μM

For one test, the target named is CDK2/cyclinA(h) (Homo sapiens, UniProt P24941). Put shortly: (§1)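 Activity measured in a commercial panel of 401 recombinant human protein kinases run as a kinase profiling service.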
The target of another test is T1, IKKβ(h) (Homo sapiens, UniProt O14920).
T1 construct: gene IKBKB
In outline: as §1

Another test has as its target ATM(h) (Homo sapiens, UniProt Q13315). In outline: as §1
The target of another test is T2, ZIPK(h) (Homo sapiens, UniProt O43293).
T2 construct: gene DAPK3
T2 sequence (O43293 whole entry): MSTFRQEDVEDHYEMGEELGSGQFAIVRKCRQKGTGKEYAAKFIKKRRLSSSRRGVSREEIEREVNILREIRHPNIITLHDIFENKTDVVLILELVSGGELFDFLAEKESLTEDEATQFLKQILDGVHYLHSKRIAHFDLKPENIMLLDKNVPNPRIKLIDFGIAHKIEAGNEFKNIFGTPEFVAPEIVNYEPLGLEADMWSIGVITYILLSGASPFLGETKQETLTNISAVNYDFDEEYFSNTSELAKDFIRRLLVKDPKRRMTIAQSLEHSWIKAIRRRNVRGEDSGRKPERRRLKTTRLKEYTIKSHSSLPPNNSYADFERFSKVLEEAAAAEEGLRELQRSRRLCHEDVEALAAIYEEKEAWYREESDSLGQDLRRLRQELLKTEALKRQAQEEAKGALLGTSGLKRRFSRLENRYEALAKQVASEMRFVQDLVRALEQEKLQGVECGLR
In outline:
as §1

For another test, the target named is T3, PhKγ1(h) (Homo sapiens, UniProt Q16816).
T3 construct: gene PHKG1
T3 sequence (Q16816 whole entry): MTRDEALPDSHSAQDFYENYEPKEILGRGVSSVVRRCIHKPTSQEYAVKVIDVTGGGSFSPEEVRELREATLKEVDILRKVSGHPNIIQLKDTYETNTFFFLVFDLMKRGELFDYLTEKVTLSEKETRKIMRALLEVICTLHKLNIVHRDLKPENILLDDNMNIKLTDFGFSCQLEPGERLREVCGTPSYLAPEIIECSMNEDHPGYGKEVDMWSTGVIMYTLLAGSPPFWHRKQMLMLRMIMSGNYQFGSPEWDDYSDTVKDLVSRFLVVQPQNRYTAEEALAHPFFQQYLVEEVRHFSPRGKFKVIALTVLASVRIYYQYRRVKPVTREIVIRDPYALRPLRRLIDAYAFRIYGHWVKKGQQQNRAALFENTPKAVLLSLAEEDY
Put shortly: as §1

The next test concerns the target T4, PKG1α(h) (Homo sapiens, UniProt Q13976).
T4 construct: gene PRKG1; isoform 1alpha
In outline:
as §1

Another test has as its target T5, CaMKIIγ(h) (Homo sapiens, UniProt Q13555).
T5 construct: gene CAMK2G
Put shortly:
as §1

Another test addresses VRK2(h) (Homo sapiens, UniProt Q86Y07). Put shortly:
as §1

The next test has as its target Flt1(h) (Homo sapiens, UniProt P17948). In outline: as §1
Another test deals with T6, PDGFRβ(h) (Homo sapiens, UniProt P09619).
T6 construct: gene PDGFRB
In outline:
as §1

The target of another test is HIPK4(h) (Homo sapiens, UniProt Q8NE63). Put shortly: as §1
Chain of HIPK4(h) (Q8NE63 whole entry): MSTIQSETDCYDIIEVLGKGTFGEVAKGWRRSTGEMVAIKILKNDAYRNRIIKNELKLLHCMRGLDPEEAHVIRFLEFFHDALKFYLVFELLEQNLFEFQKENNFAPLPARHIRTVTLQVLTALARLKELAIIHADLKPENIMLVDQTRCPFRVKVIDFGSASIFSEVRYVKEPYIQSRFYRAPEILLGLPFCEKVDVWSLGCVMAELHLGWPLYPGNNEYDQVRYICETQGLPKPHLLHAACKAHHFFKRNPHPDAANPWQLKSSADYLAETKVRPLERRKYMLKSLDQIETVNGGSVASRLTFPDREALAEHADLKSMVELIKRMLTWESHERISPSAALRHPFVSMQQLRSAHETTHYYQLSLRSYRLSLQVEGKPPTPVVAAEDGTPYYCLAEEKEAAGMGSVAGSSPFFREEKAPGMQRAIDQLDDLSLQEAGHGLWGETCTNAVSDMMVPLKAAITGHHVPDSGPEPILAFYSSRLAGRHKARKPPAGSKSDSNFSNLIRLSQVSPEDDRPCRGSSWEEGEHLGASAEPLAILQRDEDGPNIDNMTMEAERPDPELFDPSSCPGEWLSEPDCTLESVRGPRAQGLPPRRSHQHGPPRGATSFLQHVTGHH
A further test concerns the target T7, GSK3α(h) (Homo sapiens, UniProt P49840).
T7 construct: gene GSK3A
In outline: as §1

The next test deals with SRPK1(h) (Homo sapiens, UniProt Q96SB4). Put shortly:
as §1

In another test the target is FGFR1(h) (Homo sapiens, UniProt P11362). Put shortly:
as §1

The next test has as its target T8, MAPKAP-K2(h) (Homo sapiens, UniProt P49137).
T8 construct: gene MAPKAPK2
Put shortly: as §1

The target in another test is Bmx(h) (Homo sapiens, UniProt P51813). Put shortly:
as §1

For the next test, the target named is PAK2(h) (Homo sapiens, UniProt Q13177). In outline: as §1
The target in another test is TAF1L(h) (Homo sapiens, UniProt Q8IZX4). In outline: as §1
A further test deals with LTK(h) (Homo sapiens, UniProt P29376). Put shortly: as §1
Chain of LTK(h) (P29376 whole entry): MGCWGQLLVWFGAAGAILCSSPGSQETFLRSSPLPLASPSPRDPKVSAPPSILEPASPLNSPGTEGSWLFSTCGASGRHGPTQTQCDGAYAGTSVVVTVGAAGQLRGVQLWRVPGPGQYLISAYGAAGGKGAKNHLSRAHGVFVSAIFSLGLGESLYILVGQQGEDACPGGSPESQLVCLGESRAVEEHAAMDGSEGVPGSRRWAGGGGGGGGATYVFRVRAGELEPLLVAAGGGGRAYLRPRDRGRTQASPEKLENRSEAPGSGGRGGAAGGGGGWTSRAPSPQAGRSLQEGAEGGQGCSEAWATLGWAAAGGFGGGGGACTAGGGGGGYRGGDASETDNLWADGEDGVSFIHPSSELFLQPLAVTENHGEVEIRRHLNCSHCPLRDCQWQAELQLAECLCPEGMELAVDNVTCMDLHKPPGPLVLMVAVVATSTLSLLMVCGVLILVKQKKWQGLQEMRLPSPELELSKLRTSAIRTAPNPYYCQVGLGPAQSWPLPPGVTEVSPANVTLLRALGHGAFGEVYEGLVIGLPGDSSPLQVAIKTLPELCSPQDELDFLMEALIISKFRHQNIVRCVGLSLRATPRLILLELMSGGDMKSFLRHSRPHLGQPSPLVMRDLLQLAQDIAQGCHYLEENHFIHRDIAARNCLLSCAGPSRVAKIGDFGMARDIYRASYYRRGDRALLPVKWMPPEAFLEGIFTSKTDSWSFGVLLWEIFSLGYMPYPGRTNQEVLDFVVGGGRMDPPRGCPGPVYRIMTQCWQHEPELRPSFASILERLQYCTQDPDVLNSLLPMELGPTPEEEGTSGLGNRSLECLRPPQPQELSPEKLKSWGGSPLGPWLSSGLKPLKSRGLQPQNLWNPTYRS
A further test addresses T9, SAPK2b(h) (Homo sapiens, UniProt Q15759).
T9 construct: gene MAPK11
Put shortly:
as §1

The target in the next test is Haspin(h) (Homo sapiens, UniProt Q8TF76). Put shortly:
as §1

The next test concerns the target Txk(h) (Homo sapiens, UniProt P42681). In outline: as §1
The target of another test is NEK3(h) (Homo sapiens, UniProt P51956). Put shortly:
as §1

T8 sequence (P49137 whole entry): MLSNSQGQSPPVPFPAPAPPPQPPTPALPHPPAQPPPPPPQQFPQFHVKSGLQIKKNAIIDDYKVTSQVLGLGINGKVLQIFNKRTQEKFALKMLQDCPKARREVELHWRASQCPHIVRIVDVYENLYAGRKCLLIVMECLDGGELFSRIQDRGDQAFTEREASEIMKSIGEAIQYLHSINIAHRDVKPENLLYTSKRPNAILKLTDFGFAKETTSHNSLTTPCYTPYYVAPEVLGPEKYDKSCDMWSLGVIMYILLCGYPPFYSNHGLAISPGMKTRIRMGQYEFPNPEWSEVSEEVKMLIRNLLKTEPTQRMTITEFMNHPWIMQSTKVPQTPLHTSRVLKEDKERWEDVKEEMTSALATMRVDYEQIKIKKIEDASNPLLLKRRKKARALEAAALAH
T4 sequence (Q13976 whole entry, canonical isoform): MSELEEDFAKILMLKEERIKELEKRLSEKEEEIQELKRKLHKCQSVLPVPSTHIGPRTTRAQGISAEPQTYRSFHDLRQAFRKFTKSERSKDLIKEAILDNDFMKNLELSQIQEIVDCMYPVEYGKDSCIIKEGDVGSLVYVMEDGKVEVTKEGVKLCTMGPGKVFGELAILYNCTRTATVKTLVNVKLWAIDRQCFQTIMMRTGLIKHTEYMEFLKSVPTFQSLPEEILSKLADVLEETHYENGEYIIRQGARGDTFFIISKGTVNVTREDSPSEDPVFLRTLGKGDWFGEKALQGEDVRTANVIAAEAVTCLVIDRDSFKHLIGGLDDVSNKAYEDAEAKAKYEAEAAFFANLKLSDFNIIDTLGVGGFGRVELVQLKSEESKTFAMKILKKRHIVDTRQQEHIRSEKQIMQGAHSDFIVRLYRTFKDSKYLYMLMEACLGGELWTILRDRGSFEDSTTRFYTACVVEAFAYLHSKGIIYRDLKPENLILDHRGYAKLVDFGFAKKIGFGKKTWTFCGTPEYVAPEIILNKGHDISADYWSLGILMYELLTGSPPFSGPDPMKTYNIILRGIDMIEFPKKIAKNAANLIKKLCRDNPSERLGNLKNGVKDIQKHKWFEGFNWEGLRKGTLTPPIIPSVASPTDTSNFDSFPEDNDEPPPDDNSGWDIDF
T7 sequence (P49840 whole entry): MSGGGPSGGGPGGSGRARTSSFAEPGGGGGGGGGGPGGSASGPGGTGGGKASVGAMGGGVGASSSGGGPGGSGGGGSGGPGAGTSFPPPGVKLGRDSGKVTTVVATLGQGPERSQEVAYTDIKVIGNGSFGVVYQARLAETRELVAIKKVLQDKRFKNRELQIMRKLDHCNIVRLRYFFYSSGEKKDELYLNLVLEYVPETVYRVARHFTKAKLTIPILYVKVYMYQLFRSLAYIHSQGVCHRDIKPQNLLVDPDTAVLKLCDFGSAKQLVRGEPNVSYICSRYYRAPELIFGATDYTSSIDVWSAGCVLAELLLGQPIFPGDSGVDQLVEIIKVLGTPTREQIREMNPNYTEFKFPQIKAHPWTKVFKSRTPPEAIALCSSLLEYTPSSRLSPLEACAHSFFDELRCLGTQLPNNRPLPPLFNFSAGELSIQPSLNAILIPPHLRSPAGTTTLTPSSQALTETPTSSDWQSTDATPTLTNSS
Chain of VRK2(h) (Q86Y07 whole entry): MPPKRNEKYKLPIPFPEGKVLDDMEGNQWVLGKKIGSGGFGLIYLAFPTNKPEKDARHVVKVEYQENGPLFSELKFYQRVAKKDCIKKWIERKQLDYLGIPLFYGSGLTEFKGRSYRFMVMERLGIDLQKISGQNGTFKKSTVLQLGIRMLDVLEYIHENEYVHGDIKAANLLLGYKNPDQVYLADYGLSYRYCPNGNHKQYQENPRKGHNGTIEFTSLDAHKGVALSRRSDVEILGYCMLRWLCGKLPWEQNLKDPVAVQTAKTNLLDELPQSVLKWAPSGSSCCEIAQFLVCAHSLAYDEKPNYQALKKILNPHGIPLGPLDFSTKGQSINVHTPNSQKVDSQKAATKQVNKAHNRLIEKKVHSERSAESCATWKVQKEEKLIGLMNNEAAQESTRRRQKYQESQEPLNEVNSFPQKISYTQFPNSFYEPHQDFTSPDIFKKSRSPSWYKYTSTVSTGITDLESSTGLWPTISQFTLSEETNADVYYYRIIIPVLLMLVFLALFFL
T5 sequence (Q13555 whole entry): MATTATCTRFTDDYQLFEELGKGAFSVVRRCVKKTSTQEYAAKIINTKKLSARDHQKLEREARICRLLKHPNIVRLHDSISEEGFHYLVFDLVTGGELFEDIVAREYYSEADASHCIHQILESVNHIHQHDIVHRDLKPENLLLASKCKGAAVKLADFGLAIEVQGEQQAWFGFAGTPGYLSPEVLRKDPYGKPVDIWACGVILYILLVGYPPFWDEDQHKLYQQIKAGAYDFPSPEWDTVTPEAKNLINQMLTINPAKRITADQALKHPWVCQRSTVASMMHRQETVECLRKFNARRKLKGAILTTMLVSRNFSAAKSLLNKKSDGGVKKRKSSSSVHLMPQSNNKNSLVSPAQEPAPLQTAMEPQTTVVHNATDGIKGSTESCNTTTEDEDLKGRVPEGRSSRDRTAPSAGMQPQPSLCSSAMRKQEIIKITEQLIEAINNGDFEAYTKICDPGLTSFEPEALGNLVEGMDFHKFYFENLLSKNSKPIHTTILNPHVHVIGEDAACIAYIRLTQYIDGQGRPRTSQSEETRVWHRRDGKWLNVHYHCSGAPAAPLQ

Regarding `C1=C(c2nc(-c3cnn(C4CCNCC4)c3)cn3cc(-c4ccccc4)nc23)CCOC1` [YL-939], the remaining activity at 10 µM on CDK2/cyclinA(h) was determined as 95%; at IKKβ(h), 87%; on ATM(h) it was 86%; on ZIPK(h), 88%; at PhKγ1(h), 85%; on PKG1α(h) it was 90%. In addition, the remaining activity at 10 µM at CaMKIIγ(h) was 86%; at VRK2(h) it was 92%; at Flt1(h) it was 65%; on PDGFRβ(h) it was 113%; on HIPK4(h), 106%; on GSK3α(h), 119%. Besides, the remaining activity at 10 µM was determined as 107% at SRPK1(h); 115% at FGFR1(h); 92% on MAPKAP-K2(h); 87% on Bmx(h); 90% at PAK2(h); 84% on TAF1L(h). The remaining activity at 10 µM on LTK(h) was found to be 108%; at SAPK2b(h), 84%; at Haspin(h) it was 100%; on Txk(h) it was 73%; at NEK3(h), 102%.
